Measured values published in ChEMBL document CHEMBL3425477, “Compounds from the insect Blaps japanensis with COX-1 and COX-2 inhibitory activities” (Bioorg Med Chem Lett, 2015).

Columns and labels:
[1] = biological target: T1, Prostaglandin G/H synthase 2 (Homo sapiens, UniProt P35354); test: Inhibition of human recombinant COX2 pre-incubated for 15 mins followed by addition of heme and fluorometric substrate and further incubated for 15 mins in presence of arachidonic acid by fluorescence based assay
T1 sequence (P35354 whole entry): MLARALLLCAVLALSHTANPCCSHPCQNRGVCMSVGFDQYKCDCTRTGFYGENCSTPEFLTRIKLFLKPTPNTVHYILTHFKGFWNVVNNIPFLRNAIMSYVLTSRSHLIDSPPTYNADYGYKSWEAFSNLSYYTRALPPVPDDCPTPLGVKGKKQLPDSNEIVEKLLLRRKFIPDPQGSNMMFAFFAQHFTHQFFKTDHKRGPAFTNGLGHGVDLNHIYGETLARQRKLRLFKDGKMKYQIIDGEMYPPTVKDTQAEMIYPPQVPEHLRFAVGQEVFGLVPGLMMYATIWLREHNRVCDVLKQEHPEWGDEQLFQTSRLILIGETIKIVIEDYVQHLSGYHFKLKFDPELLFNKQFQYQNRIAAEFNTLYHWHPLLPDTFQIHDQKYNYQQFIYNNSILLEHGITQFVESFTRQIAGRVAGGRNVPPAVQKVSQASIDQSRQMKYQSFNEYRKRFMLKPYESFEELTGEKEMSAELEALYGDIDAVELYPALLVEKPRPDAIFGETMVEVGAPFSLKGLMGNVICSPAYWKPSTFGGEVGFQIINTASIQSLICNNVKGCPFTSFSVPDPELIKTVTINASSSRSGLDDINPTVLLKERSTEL

[2] = biological target: T2, Prostaglandin G/H synthase 1 (Ovis aries, UniProt P05979); test: Inhibition of ovine COX1 pre-incubated for 15 mins followed by addition of heme and fluorometric substrate and further incubated for 15 mins in presence of arachidonic acid by fluorescence based assay
T2 sequence (P05979 whole entry): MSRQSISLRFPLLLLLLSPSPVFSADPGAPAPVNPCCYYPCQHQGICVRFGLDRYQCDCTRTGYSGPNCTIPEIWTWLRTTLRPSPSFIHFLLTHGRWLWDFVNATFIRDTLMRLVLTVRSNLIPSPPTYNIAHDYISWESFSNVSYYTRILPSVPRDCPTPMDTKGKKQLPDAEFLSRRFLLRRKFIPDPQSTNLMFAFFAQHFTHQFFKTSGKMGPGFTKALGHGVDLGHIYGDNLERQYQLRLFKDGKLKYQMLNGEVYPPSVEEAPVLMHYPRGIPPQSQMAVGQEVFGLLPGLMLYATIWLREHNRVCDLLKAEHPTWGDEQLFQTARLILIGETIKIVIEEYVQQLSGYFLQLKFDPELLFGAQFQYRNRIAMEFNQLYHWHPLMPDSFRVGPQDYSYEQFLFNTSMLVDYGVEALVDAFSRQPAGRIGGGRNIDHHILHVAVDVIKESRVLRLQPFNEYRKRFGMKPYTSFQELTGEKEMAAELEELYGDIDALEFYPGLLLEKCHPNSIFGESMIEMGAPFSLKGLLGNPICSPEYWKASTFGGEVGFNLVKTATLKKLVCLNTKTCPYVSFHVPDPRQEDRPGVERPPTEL

Structure (SMILES) | IC50 [1] [µM] | IC50 [2] | IC50 ([2]; read-out: IC50) [µM]
CC(=O)N[C@H]1Oc2ccc(CCO)cc2O[C@@H]1c1ccc(O)c(O)c1 (relative stereo) | 2.5 | Not Active | 
CO[C@]1(c2ccc(O)c(O)c2)Oc2ccc(CCO)cc2O[C@H]1O | 6.02 | Not Active | 
CCOC1(c2ccc(O)c(O)c2)Oc2ccc(CCO)cc2OC1O (stereo unspecified) | 6.04 | Not Active | 
CCO[C@@]1(c2ccc(O)c(O)c2)Oc2cc(CCO)ccc2O[C@@H]1O | 13.7 | Not Active | 
CO[C@@]1(c2ccc(O)c(O)c2)Oc2cc(CCO)ccc2O[C@@H]1O | 17.8 | Not Active | 
CO[C@]1(c2ccc(O)c(O)c2)Oc2cc(CCO)ccc2O[C@H]1O | 9.7 | Not Active | 
CC(=O)NCCc1ccc2c(c1)O[C@H](c1ccc(O)c(O)c1)[C@@H](NC(C)=O)O2 (relative stereo) | 3.6 | Not Active | 
CCO[C@]1(c2ccc(O)c(O)c2)Oc2cc(CCO)ccc2O[C@H]1O | 8.6 | Not Active | 
CC(=O)/N=C/Cc1ccc2c(c1)O[C@H](c1ccc(O)c(O)c1)[C@@H](NC(C)=O)O2 (relative stereo) | 2.7 |  | 13.8

More lines, in order of falling IC50 [1], values ahead:

IC50 [1] [µM] | IC50 [2] | IC50 ([2]; read-out: IC50) [µM] | Structure (SMILES)
8.24 | Not Active |  | CO[C@@]1(c2ccc(O)c(O)c2)Oc2ccc(CCO)cc2O[C@@H]1O
2.6 | Not Active |  | CC(=O)NCCc1ccc2c(c1)O[C@H](NC(C)=O)[C@@H](c1ccc(O)c(O)c1)O2
2.52 | Not Active |  | CCO[C@@]1(c2ccc(O)c(O)c2)Oc2ccc(CCO)cc2O[C@@H]1O
1.3 | Not Active |  | CC(=O)N[C@H]1Oc2cc(CCO)ccc2O[C@@H]1c1ccc(O)c(O)c1 (relative stereo)
